# Assay results reported in ChEMBL document CHEMBL5338738, “Discovery of Novel Sesquiterpene Lactone Derivatives as Potent PKM2 Activators for the Treatment of Ulcerative Colitis” (J Med Chem, 2023).
# Calls of active or inactive are those of the source. The calls are words filed in the database; no cut-off is given here.
# Legend:
# [1] = Cmax in Sprague-Dawley rat at 75 mg/kg,po and measured upto 24 hrs by LC-MS/MS analysis; format: ADME, organism-based; design: dose 75 mg/kg, time < 24 hrs, route po; conditions: in vivo
# CD4+ve Th [2] = test: (§1) Inhibition of aerobic glycolysis in anti-CD3/CD28 stimulated C57BL/6 mouse mesenteric lymph node CD4+ve Th cells assessed as downregulation of Glut1 protein expression level at 0.3 to 3 uM incubated for 96 hrs in presence of recombinant human TGF-beta, recombinant mouse IL-6 and recombinant mouse IL-23 by Western blot analysis; format: functional, cell-based; conditions: dose 0.3-3 µM
# Mus musculus [3] = test: Anti-colitis activity against DSS-induced ulcerative colitis C57BL/6 mouse model assessed as decrease in MPO level in colon at 12.5 to 25 mg/kg, po for 10 days consecutively; format: functional, organism-based; conditions: dose 12.5-25 mg/kg, time 10.0 day
# Mus musculus [4] = test: Anti-colitis activity against DSS-induced ulcerative colitis C57BL/6 mouse model assessed as downregulation of Foxp3 mRNA expression level in colon at 6.25 to 25 mg/kg, po for 10 days consecutively by qPCR assay; format: functional, organism-based; conditions: dose 6.25-25 mg/kg, time 10.0 day
# Mus musculus [5] = test: Anti-colitis activity against TNBS-induced ulcerative colitis BALB/c mouse model assessed as decrease in inflammatory injury by measuring MPO level at 12.5 to 25 mg/kg, po for consecutive 7 days; format: functional, organism-based; conditions: dose 12.5-25 mg/kg, time 7.0 day
# Mus musculus [6] = test: Anti-colitis activity against DSS-induced ulcerative colitis C57BL/6 mouse model assessed as reduction in disease activity index (DAI) score at 12.5 to 25 mg/kg, po for 10 days consecutively; format: functional, organism-based; conditions: dose 12.5-25 mg/kg, time 10.0 day
# Mus musculus [7] = test: Anti-colitis activity against DSS-induced ulcerative colitis C57BL/6 mouse model assessed as reduction in spleen index at 12.5 to 25 mg/kg, po for 10 days consecutively; format: functional, organism-based; conditions: dose 12.5-25 mg/kg, time 10.0 day
# CD4+ve Th [8] = test: as §1, with “Th17 cells differentiation” for “aerobic glycolysis”, “IL22 mRNA” for “Glut1 protein”, “0.1” for “0.3”, “qPCR” for “Western blot”; format: functional, cell-based; conditions: dose 0.1-3 µM
# CD4+ve Th [9] = test: as §1, with “PFK1” for “Glut1”; format: functional, cell-based; conditions: dose 0.3-3 µM
# Mus musculus [10] = test: Anti-colitis activity against TNBS-induced ulcerative colitis BALB/c mouse model assessed as decrease in infiltration of inflammatory cells into lamina propria in colon at 12.5 to 25 mg/kg, po for consecutive 7 days by H and E staining based microscopy; format: functional, organism-based; conditions: dose 12.5-25 mg/kg, time 7.0 day
# Mus musculus [11] = test: Anti-colitis activity against DSS-induced ulcerative colitis C57BL/6 mouse model assessed as increase in colon length at 12.5 to 25 mg/kg, po for 10 days consecutively; format: functional, organism-based; conditions: dose 12.5-25 mg/kg, time 10.0 day
# CD4+ve Th [12] = test: as §1, with “Th17 cells differentiation” for “aerobic glycolysis”, “RORC mRNA” for “Glut1 protein”, “0.1” for “0.3”, “qPCR” for “Western blot”; format: functional, cell-based; conditions: dose 0.1-3 µM
# Mus musculus [13] = test: Anti-colitis activity against DSS-induced ulcerative colitis C57BL/6 mouse model assessed as downregulation of IL10 mRNA expression level in spleen at 6.25 to 25 mg/kg, po for 10 days consecutively by qPCR assay; format: functional, organism-based; conditions: dose 6.25-25 mg/kg, time 10.0 day
# CD4+ve Th [14] = test: as §1, with “Th17 cells differentiation” for “aerobic glycolysis”, “IL23r mRNA” for “Glut1 protein”, “0.1” for “0.3”, “qPCR” for “Western blot”; format: functional, cell-based; conditions: dose 0.1-3 µM
# [15] = Genotoxicity in Salmonella typhimurium by AMES test; format: toxicity; conditions: salmonella enterica subsp. enterica serovar typhimurium
# [16] = Inhibition of Th17 cells differentiation in anti-CD3/CD28 stimulated C57BL/6 mouse mesenteric lymph node CD4+ve Th cells assessed as decrease in proportion of IL17A-positive Th17 cells at 0.3 uM incubated for 96 hrs in presence of recombinant human TGF-beta, recombinant mouse IL-6 and recombinant mouse IL-23 by flow cytometry (Rvb= 16.7%); format: functional; conditions: C57BL/6, CD4+ve Th
# [17] = biological target: Pyruvate kinase PKM (Mus musculus) (UniProt P52480); test: Binding affinity to PKM2 in C57BL/6 mouse mesenteric lymph node CD4+ve Th cells assessed as increase in denaturation temperature at 3 uM incubated for 4 hrs by Solvent-induced protein precipitation analysis; format: tissue-based; conditions: filed as activator
# T-cell = test: Immunomodulatory activity in C57BL/6 mouse mesenteric lymph node T cells assessed as inhibition of concanavalin A stimulated T-cell proliferation incubated for 68 hrs by CCK-8 assay; format: functional, cell-based; conditions: C57BL/6, T-cell
# CD4+ve Th [18] = test: as §1, with “Pfk1 mRNA” for “Glut1 protein”, “qPCR” for “Western blot”; format: functional, cell-based; conditions: dose 0.3-3 µM
# CD4+ve Th [19] = test: Inhibition of Treg cells differentiation in anti-CD3/CD28 stimulated C57BL/6 mouse mesenteric lymph node CD4+ve Th cells assessed as change in IL10 mRNA expression level cells at 0.1 to 3 uM incubated for 96 hrs in presence of recombinant human TGF-beta by qPCR analysis; format: functional, cell-based; conditions: dose 0.1-3 µM
# [20] = MRT(t) in Sprague-Dawley rat at 8 mg/kg,iv and measured upto 24 hrs by LC-MS/MS analysis; format: ADME, organism-based; conditions: in vivo
# CD4+ve Th [21] = test: as §1, with “Th17 cells differentiation” for “aerobic glycolysis”, “decrease in total PKM2” for “downregulation of Glut1 protein”, “expression” for “expression level”, “0.1” for “0.3”; format: functional, cell-based; conditions: dose 0.1-3 µM
# Pyruvate kinase PKM = Pyruvate kinase PKM (Homo sapiens, UniProt P14618); test: Binding affinity to PKM2 (unknown origin) by SPR assay
# [22] = Microsomal stability in rat liver microsomes assessed as hepatic clearance; format: ADME, Microsome
# CD4+ve Th [23] = test: as §1, with “decrease in ATP production” for “downregulation of Glut1 protein expression level”, “colorimetric assay” for “Western blot analysis”; format: functional, cell-based; conditions: dose 0.3-3 µM
# [24] = Toxicity in C57BL/6 mouse assessed as histological change in spleen at 6.25 to 25 mg/kg, po for 10 days consecutively by H and E staining based microscopy; format: organism-based; conditions: in vivo, 240 h, dose 6.25-25 mg/kg, time 10 day
# [25] = Toxicity in C57BL/6 mouse assessed as body weight change at 6.25 to 25 mg/kg, po for 10 days consecutively; format: organism-based; conditions: in vivo, 240 h, dose 6.25-25 mg/kg, time 10 day
# Mus musculus [26] = test: Anti-colitis activity against DSS-induced ulcerative colitis C57BL/6 mouse model assessed as reduction in inflammatory cell infiltration in colon at 12.5 to 25 mg/kg, po for 10 days consecutively by H and E staining based microscopic analysis; format: functional, organism-based; conditions: dose 12.5-25 mg/kg, time 10.0 day
# CD4+ve Th [27] = test: Cytotoxicity against C57BL/6 mouse mesenteric lymph node CD4+ve Th cells assessed as reduction in cell viability at 0.3 to 3 uM incubated for 96 hrs by MTT assay; format: toxicity, cell-based; conditions: dose 0.3-3 µM
# [28] = AUCt in Sprague-Dawley rat at 8 mg/kg,iv and measured upto 24 hrs by LC-MS/MS analysis; format: ADME, organism-based; design: time < 24 hrs, dose 8 mg/kg, route iv; conditions: in vivo
# Mus musculus [29] = test: Anti-colitis activity against DSS-induced ulcerative colitis C57BL/6 mouse model assessed as reduction in histological score in colon at 12.5 to 25 mg/kg, po for 10 days consecutively by H and E staining based microscopic analysis; format: functional, organism-based; conditions: dose 12.5-25 mg/kg, time 10.0 day
# CD4+ve Th [30] = test: as §1, with “reduction in glucose utilization by measuring glucose” for “downregulation of Glut1 protein expression”, “colorimetric” for “Western blot”; format: functional, cell-based; conditions: dose 0.3-3 µM
# Pyruvate kinase PKM (Mus musculus), sequence (P52480 whole entry): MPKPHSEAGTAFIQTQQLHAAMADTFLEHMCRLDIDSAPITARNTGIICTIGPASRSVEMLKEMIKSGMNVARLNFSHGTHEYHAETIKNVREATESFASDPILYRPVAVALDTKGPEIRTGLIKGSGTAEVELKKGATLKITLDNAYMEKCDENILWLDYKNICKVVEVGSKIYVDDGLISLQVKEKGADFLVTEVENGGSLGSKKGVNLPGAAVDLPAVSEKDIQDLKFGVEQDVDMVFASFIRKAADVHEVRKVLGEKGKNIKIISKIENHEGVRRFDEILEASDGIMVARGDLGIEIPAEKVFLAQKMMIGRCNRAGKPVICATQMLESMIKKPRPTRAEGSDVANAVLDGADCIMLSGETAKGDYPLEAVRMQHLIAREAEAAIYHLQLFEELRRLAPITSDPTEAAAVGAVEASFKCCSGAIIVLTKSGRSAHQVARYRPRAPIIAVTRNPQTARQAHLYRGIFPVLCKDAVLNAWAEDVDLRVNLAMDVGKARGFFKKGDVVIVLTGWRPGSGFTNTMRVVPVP
# Pyruvate kinase PKM, sequence (P14618 whole entry): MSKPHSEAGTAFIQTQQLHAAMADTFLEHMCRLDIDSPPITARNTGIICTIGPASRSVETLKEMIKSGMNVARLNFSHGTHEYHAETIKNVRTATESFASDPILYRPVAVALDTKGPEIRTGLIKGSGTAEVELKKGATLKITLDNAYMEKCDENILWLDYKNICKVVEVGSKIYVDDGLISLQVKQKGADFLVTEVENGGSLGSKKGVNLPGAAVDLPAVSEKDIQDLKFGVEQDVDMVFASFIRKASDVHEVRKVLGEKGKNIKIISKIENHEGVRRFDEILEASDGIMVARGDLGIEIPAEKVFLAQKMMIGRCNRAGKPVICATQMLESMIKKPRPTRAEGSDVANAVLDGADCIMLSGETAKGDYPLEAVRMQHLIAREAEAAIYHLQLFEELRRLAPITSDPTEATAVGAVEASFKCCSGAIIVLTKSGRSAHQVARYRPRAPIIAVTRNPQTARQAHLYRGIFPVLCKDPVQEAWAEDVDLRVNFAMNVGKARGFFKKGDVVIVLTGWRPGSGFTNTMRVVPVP
structure (smiles),measurement,setting,value
C=C1C(=O)O[C@H]2[C@H]1CC[C@@]1(C)[C@@H](CC[C@@]3(C)O[C@@H]23)C1(F)F,Cmax,[1],82 ng/mL
same,inhibition,CD4+ve Th [2],Active
same,Activity,Mus musculus [3],Active
same,Activity,Mus musculus [4],inactive
same,Activity,Mus musculus [5],Active
same,Activity,Mus musculus [6],Active
same,Activity,Mus musculus [7],Active
same,inhibition,CD4+ve Th [8],Active
same,inhibition,CD4+ve Th [9],Active
same,Activity,Mus musculus [10],Active
same,Activity,Mus musculus [11],Active
same,inhibition,CD4+ve Th [12],Active
same,Activity,Mus musculus [13],inactive
same,inhibition,CD4+ve Th [14],Active
same,Activity,[15],Non-Toxic
same,IL17A+ cells at 0.3 µM,[16],12.4%
same,Activity,[17],Active
same,IC50,T-cell,590 nM
same,inhibition,CD4+ve Th [18],Active
same,inhibition,CD4+ve Th [19],inactive
same,MRT last at 24 h,[20],5 h
same,inhibition,CD4+ve Th [21],Active
same,Kd,Pyruvate kinase PKM,18.4 nM
same,CLhep predicted,[22],43.1 mL/min/kg
same,inhibition,CD4+ve Th [23],Active
same,Activity,[24],Non-Toxic
same,Activity,[25],Non-Toxic
same,Activity,Mus musculus [26],Active
same,Activity,CD4+ve Th [27],Non-Toxic
same,AUC(0-t) at 24 h,[28],1230 ng·h/mL
same,Activity,Mus musculus [29],Active
same,inhibition,CD4+ve Th [30],Active
